ChEMBL document CHEMBL4507267 (2021)

How the values were obtained:
[1] = system: Tyrosine-protein kinase ABL1 (Homo sapiens), P00519 [F317I]; details: Compound concentration 1000.0 nM
[2] = system: Tyrosine-protein kinase ABL1 (Homo sapiens), P00519 [F317L]; details: Compound concentration 1000.0 nM
[3] = target: Activin receptor type-2B (Homo sapiens) (UniProt Q13705); details: Compound concentration 1000.0 nM
[4] = target: NUAK family SNF1-like kinase 1 (Homo sapiens) (UniProt O60285); details: Compound concentration 1000.0 nM
[5] = target: Bone morphogenetic protein receptor type-1A (Homo sapiens) (UniProt P36894); details: Compound concentration 1000.0 nM
[6] = target: Cytoplasmic tyrosine-protein kinase BMX (Homo sapiens) (UniProt P51813); details: Compound concentration 1000.0 nM
[7] = target: Serine/threonine-protein kinase Chk1 (Homo sapiens) (UniProt O14757); details: Compound concentration 1000.0 nM
[8] = target: Dual specificity protein kinase CLK4 (Homo sapiens) (UniProt Q9HAZ1); details: Compound concentration 1000.0 nM
[9] = target: Casein kinase I isoform gamma-3 (Homo sapiens) (UniProt Q9Y6M4); details: Compound concentration 1000.0 nM
[10] = target: Death-associated protein kinase 2 (Homo sapiens) (UniProt Q9UIK4); details: Compound concentration 1000.0 nM
[11] = target: Death-associated protein kinase 3 (Homo sapiens) (UniProt O43293); details: Compound concentration 1000.0 nM
[12] = target: Ephrin type-A receptor 8 (Homo sapiens) (UniProt P29322); details: Compound concentration 1000.0 nM
[13] = target: Ephrin type-B receptor 4 (Homo sapiens) (UniProt P54760); details: Compound concentration 1000.0 nM
[14] = target: Tyrosine-protein kinase Fer (Homo sapiens) (UniProt P16591); details: Compound concentration 1000.0 nM
[15] = target: Tyrosine-protein kinase Fgr (Homo sapiens) (UniProt P09769); details: Compound concentration 1000.0 nM
[16] = target: Receptor-type tyrosine-protein kinase FLT3 (Homo sapiens) (UniProt P36888); details: Compound concentration 1000.0 nM
[17] = target: G protein-coupled receptor kinase 3 (Homo sapiens) (UniProt P35626); details: Compound concentration 1000.0 nM
[18] = target: G protein-coupled receptor kinase 4 (Homo sapiens) (UniProt P32298); details: Compound concentration 1000.0 nM
[19] = target: Homeodomain-interacting protein kinase 3 (Homo sapiens) (UniProt Q9H422); details: Compound concentration 1000.0 nM
[20] = target: Inhibitor of nuclear factor kappa-B kinase subunit epsilon (Homo sapiens) (UniProt Q14164); details: Compound concentration 1000.0 nM
[21] = target: Tyrosine-protein kinase JAK1 (Homo sapiens) (UniProt P23458); details: Compound concentration 1000.0 nM
[22] = target: Tyrosine-protein kinase JAK3 (Homo sapiens) (UniProt P52333); details: Compound concentration 1000.0 nM
[23] = target: Mitogen-activated protein kinase kinase kinase 1 (Homo sapiens) (UniProt Q13233); details: Compound concentration 1000.0 nM
[24] = target: Mitogen-activated protein kinase kinase kinase 3 (Homo sapiens) (UniProt Q99759); details: Compound concentration 1000.0 nM
[25] = target: Dual specificity mitogen-activated protein kinase kinase 1 (Homo sapiens) (UniProt Q02750); details: Compound concentration 1000.0 nM
[26] = target: Serine/threonine-protein kinase 24 (Homo sapiens) (UniProt Q9Y6E0); details: Compound concentration 1000.0 nM
[27] = target: Serine/threonine-protein kinase Nek11 (Homo sapiens) (UniProt Q8NG66); details: Compound concentration 1000.0 nM
[28] = target: 3-phosphoinositide-dependent protein kinase 1 (Homo sapiens) (UniProt O15530); details: Compound concentration 1000.0 nM
[29] = target: Calcium-dependent protein kinase 1 (Plasmodium falciparum) (UniProt P62344); details: Compound concentration 1000.0 nM
[30] = system: Phosphatidylinositol 4,5-bisphosphate 3-kinase catalytic subunit alpha isoform (Homo sapiens), P42336 [I800L]; details: Compound concentration 1000.0 nM
[31] = system: Phosphatidylinositol 4,5-bisphosphate 3-kinase catalytic subunit alpha isoform (Homo sapiens), P42336 [Q546K]; details: Compound concentration 1000.0 nM
[32] = target: Phosphatidylinositol 4,5-bisphosphate 3-kinase catalytic subunit delta isoform (Homo sapiens) (UniProt O00329); details: Compound concentration 1000.0 nM
[33] = target: Proto-oncogene tyrosine-protein kinase receptor Ret (Homo sapiens) (UniProt P07949); details: Compound concentration 1000.0 nM
[34] = system: Proto-oncogene tyrosine-protein kinase receptor Ret (Homo sapiens), P07949 [V804M]; details: Compound concentration 1000.0 nM
[35] = target: Ribosomal protein S6 kinase alpha-4 (Homo sapiens) (UniProt O75676); details: Compound concentration 1000.0 nM
[36] = target: Ribosomal protein S6 kinase alpha-1 (Homo sapiens) (UniProt Q15418); details: Compound concentration 1000.0 nM
[37] = target: Ribosomal protein S6 kinase alpha-2 (Homo sapiens) (UniProt Q15349); details: Compound concentration 1000.0 nM
[38] = target: Ribosomal protein S6 kinase alpha-6 (Homo sapiens) (UniProt Q9UK32); details: Compound concentration 1000.0 nM
[39] = target: Uncharacterized serine/threonine-protein kinase SBK3 (Homo sapiens) (UniProt P0C264); details: Compound concentration 1000.0 nM
[40] = target: Angiopoietin-1 receptor (Homo sapiens) (UniProt Q02763); details: Compound concentration 1000.0 nM
[41] = target: Tyrosine-protein kinase TXK (Homo sapiens) (UniProt P42681); details: Compound concentration 1000.0 nM
[42] = target: Vascular endothelial growth factor receptor 2 (Homo sapiens) (UniProt P35968); details: Compound concentration 1000.0 nM
[43] = target: Tyrosine-protein kinase Yes (Homo sapiens) (UniProt P07947); details: Compound concentration 1000.0 nM
[44] = target: 5-hydroxytryptamine receptor 1E (Homo sapiens) (UniProt P28566); details: Compound concentration 10.0 uM
[45] = target: 5-hydroxytryptamine receptor 2A (Homo sapiens) (UniProt P28223); details: Compound concentration 10.0 uM

Chain of Ephrin type-A receptor 8 (Homo sapiens) (P29322 whole entry): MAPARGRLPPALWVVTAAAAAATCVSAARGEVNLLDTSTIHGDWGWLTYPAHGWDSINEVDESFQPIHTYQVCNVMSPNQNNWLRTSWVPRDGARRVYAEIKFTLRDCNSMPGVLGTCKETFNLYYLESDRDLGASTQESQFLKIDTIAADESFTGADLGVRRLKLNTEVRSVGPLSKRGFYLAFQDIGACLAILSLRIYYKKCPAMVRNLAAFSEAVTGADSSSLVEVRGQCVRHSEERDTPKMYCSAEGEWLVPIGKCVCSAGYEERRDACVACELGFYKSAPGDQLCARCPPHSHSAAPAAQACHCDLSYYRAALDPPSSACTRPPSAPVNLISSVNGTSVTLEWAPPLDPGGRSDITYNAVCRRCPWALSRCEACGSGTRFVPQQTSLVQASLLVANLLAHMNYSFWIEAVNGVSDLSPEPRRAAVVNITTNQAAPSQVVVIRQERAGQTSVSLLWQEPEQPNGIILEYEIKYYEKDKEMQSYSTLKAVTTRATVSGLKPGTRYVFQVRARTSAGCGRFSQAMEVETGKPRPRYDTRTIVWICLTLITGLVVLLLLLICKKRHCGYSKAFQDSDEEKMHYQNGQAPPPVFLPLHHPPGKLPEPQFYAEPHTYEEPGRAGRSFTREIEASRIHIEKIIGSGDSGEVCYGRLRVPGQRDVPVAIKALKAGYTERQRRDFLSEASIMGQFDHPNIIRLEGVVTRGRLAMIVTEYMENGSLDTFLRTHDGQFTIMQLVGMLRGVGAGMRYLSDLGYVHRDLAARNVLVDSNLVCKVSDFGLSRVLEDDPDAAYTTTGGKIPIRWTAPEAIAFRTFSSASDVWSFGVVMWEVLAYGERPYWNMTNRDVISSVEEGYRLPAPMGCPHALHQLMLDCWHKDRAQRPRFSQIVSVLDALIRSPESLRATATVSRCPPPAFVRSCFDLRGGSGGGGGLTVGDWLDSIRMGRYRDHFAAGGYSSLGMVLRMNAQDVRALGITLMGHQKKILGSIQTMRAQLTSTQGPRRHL
Chain of Uncharacterized serine/threonine-protein kinase SBK3 (Homo sapiens) (P0C264 whole entry): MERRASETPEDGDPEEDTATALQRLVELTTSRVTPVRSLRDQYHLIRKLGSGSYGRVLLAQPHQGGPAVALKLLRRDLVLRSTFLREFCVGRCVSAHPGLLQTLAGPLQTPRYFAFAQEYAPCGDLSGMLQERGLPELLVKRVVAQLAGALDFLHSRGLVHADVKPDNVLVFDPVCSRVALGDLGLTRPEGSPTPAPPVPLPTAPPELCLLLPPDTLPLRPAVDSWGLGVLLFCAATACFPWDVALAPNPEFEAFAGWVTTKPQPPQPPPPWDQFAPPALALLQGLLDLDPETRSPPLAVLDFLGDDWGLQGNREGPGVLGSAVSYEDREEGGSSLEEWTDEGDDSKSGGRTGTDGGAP
Chain of Tyrosine-protein kinase ABL1 (Homo sapiens), P00519 [F317I] (P00519 whole entry F317I): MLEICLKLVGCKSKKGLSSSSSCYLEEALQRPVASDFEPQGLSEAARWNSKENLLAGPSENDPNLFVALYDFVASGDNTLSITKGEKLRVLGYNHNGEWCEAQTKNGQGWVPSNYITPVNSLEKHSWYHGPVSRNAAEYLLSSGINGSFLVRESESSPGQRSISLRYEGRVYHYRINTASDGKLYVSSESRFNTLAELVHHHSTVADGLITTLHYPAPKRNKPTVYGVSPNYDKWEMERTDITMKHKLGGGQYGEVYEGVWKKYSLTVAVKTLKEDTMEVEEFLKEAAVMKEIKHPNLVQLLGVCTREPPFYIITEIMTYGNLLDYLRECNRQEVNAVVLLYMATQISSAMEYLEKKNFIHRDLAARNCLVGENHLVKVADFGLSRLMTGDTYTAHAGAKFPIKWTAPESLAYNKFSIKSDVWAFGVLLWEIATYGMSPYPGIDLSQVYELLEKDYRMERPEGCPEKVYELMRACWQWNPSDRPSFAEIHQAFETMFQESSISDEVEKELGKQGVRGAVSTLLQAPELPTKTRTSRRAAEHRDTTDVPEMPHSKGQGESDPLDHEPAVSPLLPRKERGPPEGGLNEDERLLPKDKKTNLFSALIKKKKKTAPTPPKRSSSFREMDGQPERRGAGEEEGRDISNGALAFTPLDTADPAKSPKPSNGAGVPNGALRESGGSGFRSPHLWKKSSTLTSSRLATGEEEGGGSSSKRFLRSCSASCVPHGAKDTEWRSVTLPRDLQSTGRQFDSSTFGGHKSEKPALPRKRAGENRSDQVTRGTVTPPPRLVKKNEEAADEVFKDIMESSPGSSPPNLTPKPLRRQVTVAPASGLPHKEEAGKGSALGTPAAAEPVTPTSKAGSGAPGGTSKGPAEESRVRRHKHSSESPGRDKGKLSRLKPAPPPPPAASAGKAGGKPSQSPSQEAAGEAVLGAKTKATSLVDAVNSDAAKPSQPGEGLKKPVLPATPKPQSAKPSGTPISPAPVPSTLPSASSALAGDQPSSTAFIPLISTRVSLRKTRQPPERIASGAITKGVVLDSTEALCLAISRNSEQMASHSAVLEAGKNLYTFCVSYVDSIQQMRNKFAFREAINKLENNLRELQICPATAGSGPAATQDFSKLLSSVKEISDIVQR
Chain of Angiopoietin-1 receptor (Homo sapiens) (Q02763 whole entry): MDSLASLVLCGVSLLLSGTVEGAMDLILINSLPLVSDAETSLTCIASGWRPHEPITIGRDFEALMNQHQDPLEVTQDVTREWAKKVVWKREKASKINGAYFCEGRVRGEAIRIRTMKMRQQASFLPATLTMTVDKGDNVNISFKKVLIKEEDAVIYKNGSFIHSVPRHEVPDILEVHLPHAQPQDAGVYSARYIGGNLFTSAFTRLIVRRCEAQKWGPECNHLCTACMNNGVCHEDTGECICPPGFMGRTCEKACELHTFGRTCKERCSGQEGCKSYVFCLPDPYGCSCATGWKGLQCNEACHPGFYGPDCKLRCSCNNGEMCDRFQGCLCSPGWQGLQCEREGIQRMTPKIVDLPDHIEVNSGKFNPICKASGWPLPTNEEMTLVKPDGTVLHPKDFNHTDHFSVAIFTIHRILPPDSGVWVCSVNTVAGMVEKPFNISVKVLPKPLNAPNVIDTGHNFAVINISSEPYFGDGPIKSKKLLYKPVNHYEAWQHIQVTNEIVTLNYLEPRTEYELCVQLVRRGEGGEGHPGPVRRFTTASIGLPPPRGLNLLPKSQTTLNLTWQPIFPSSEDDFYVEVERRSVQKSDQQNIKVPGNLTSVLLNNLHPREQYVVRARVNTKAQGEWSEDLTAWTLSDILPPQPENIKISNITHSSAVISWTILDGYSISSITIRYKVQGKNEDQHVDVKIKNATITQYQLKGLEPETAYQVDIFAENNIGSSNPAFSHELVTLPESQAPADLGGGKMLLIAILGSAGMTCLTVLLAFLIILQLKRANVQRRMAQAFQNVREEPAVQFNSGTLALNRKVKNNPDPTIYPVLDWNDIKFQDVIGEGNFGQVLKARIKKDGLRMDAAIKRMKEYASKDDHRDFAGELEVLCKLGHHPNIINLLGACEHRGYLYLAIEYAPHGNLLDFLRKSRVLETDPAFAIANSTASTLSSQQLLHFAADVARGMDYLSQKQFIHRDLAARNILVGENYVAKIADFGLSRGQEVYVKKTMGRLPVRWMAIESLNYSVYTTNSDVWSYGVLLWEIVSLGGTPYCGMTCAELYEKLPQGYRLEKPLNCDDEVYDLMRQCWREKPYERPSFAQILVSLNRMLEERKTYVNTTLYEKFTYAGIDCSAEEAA
Chain of Casein kinase I isoform gamma-3 (Homo sapiens) (Q9Y6M4 whole entry, looked up, canonical isoform): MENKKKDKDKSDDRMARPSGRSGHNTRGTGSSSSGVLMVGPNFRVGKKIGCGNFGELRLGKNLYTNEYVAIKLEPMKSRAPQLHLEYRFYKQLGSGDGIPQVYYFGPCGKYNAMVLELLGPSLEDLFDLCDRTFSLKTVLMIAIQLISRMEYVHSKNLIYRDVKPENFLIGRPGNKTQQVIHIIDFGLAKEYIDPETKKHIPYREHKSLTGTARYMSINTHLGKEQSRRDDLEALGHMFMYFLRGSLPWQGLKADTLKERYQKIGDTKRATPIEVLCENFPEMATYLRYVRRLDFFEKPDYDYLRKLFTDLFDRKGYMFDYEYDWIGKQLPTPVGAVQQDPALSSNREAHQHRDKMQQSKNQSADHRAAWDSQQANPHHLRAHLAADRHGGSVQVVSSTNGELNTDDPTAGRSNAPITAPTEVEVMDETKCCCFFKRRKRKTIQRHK
Chain of Tyrosine-protein kinase TXK (Homo sapiens) (P42681 whole entry): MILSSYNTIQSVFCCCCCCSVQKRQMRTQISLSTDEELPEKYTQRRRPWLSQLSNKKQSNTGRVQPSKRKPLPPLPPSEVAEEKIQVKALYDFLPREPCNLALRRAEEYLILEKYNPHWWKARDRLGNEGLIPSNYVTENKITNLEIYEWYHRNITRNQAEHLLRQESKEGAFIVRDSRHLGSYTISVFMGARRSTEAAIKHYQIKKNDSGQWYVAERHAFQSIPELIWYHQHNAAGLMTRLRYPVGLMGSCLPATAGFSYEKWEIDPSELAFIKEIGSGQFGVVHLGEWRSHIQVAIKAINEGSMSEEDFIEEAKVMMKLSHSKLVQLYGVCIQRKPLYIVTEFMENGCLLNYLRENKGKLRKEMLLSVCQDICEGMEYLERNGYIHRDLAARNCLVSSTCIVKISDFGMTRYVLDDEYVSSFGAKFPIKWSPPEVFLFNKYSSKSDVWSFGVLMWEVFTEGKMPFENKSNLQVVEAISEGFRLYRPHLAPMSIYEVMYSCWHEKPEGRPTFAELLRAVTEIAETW
Chain of Death-associated protein kinase 3 (Homo sapiens) (O43293 whole entry, looked up): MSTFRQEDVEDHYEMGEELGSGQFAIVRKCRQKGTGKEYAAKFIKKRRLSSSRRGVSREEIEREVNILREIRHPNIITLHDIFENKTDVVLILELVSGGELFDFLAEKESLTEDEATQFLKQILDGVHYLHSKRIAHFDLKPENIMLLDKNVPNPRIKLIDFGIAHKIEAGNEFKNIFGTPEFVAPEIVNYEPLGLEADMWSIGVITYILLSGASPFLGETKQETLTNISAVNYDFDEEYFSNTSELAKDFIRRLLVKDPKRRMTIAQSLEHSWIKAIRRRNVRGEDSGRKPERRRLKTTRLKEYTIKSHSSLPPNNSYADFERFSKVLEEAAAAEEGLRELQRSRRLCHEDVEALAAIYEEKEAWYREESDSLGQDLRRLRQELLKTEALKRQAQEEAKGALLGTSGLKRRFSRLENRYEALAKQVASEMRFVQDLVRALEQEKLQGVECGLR

Cc1c(NC(=O)c2cc(C(N)=O)nc3cc(F)ccc23)c(C(F)(F)F)nn1Cc1ccc(C(C)(C)C)cc1 [BAY-588]
residual activity [1]: 100% | residual activity [2]: 100% | residual activity [3]: 100% | residual activity [4]: 94% | residual activity [5]: 100% | residual activity [6]: 88% | residual activity [7]: 100% | residual activity [8]: 100% | residual activity [9]: 100% | residual activity [10]: 76% | residual activity [11]: 76% | residual activity [12]: 100% | residual activity [13]: 100% | residual activity [14]: 100% | residual activity [15]: 96% | residual activity [16]: 100% | residual activity [17]: 100% | residual activity [18]: 100% | residual activity [19]: 100% | residual activity [20]: 100% | residual activity [21]: 100% | residual activity [22]: 100% | residual activity [23]: 100% | residual activity [24]: 100% | residual activity [25]: 91% | residual activity [26]: 100% | residual activity [27]: 100% | residual activity [28]: 94% | residual activity [29]: 100% | residual activity [30]: 100% | residual activity [31]: 32% | residual activity [32]: 100% | residual activity [33]: 100% | residual activity [34]: 100% | residual activity [35]: 92% | residual activity [36]: 100% | residual activity [37]: 100% | residual activity [38]: 100% | residual activity [39]: 100% | residual activity [40]: 94% | residual activity [41]: 100% | residual activity [42]: 100% | residual activity [43]: 100% | inhibition [44]: 7.98% | inhibition [45]: -0.878%

Cc1c(NC(=O)c2cc(C(N)=O)nc3cc(F)ccc23)c(C(F)(F)F)nn1Cc1ccc(C#N)cc1 [BAY-876]
residual activity [1]: 96% | residual activity [2]: 88% | residual activity [3]: 93% | residual activity [4]: 100% | residual activity [5]: 84% | residual activity [6]: 85% | residual activity [7]: 75% | residual activity [8]: 87% | residual activity [9]: 100% | residual activity [10]: 99% | residual activity [11]: 89% | residual activity [12]: 91% | residual activity [13]: 100% | residual activity [14]: 99% | residual activity [15]: 93% | residual activity [16]: 83% | residual activity [17]: 89% | residual activity [18]: 100% | residual activity [19]: 85% | residual activity [20]: 75% | residual activity [21]: 100% | residual activity [22]: 90% | residual activity [23]: 65% | residual activity [24]: 66% | residual activity [25]: 90% | residual activity [26]: 78% | residual activity [27]: 100% | residual activity [28]: 73% | residual activity [29]: 92% | residual activity [30]: 78% | residual activity [31]: 85% | residual activity [32]: 66% | residual activity [33]: 94% | residual activity [34]: 100% | residual activity [35]: 100% | residual activity [36]: 100% | residual activity [37]: 86% | residual activity [38]: 78% | residual activity [39]: 100% | residual activity [40]: 92% | residual activity [41]: 99% | residual activity [42]: 80% | residual activity [43]: 66% | inhibition [44]: 4% | inhibition [45]: 14.3%
